{"source": "ChEMBL document CHEMBL5576089", "about": "“Discovery of Oxidized p-Terphenyls as Phosphodiesterase 4 Inhibitors from Marine-Derived Fungi” (J Nat Prod, 2024)", "key": {"MRC5 [1]": {"tested_on": "MRC5", "assay": "Anti-fibrotic activity in TGF-beta1-activated human MRC5 cells assessed as reduction in FN1 mRNA level at 10 uM incubated for 48 hrs by RT-qPCR analysis", "type": "functional, cell-based"}, "MRC5 [2]": {"tested_on": "MRC5", "assay": "Anti-fibrotic activity in TGF-beta1-activated human MRC5 cells assessed as reduction in COL1 mRNA level at 10 uM incubated for 48 hrs by RT-qPCR analysis", "type": "functional, cell-based"}, "MRC5 [3]": {"tested_on": "MRC5", "assay": "Anti-fibrotic activity in TGF-beta1-activated human MRC5 cells assessed as reduction in alpha-SMA mRNA level at 10 uM incubated for 48 hrs by RT-qPCR analysis", "type": "functional, cell-based"}, "Phosphodiesterase 4": {"target": "Phosphodiesterase 4 (Homo sapiens, UniProt P27815+Q08499+Q07343+Q08493)", "assay": "Inhibition of PDE4 (unknown origin) using [3H]cAMP[…] as substrate incubated for 15 mins by phosphodiesterase scintillation proximity assay", "type": "protein assay"}, "NIH3T3 [4]": {"tested_on": "NIH3T3", "assay": "Cytotoxicity against mouse NIH3T3 cells assessed as reduction in cell viability incubated for 48 hrs", "type": "toxicity, cell-based", "conditions": "nih3t3, 48 h"}, "NIH3T3 [5]": {"tested_on": "NIH3T3", "assay": "Anti-fibrotic activity in TGF-beta1-induced mouse NIH3T3 cells assessed as reduction in fibronectin expression at 20 uM incubated for 48 hrs by Western blot analysis", "type": "functional, cell-based"}, "RAW264.7 [6]": {"tested_on": "RAW264.7", "assay": "Cytotoxicity against mouse RAW264.7 cells assessed as reduction in cell viability at 10 to 160 uM incubated for 48 hrs by CCK8 assay", "type": "toxicity, cell-based", "conditions": "raw264.7, 48 h, dose 10-160 µM"}, "RAW264.7 [7]": {"tested_on": "RAW264.7", "assay": "Antiinflammatory activity in LPS-induced mouse RAW264.7 cells assessed as reduction in IL-6 mRNA level at 10 to 20 uM preincubated with compound for 4 hrs followed by LPS stimulation and measured after 24 hrs by RT-qPCR analysis", "type": "functional, cell-based", "conditions": "dose 10-20 µM, time 28.0 hrs"}, "RAW264.7 [8]": {"tested_on": "RAW264.7", "assay": "Antiinflammatory activity in LPS-induced mouse RAW264.7 cells assessed as reduction in TNF-alpha mRNA level at 10 to 20 uM preincubated with compound for 4 hrs followed by LPS stimulation and measured after 24 hrs by RT-qPCR analysis", "type": "functional, cell-based", "conditions": "dose 10-20 µM, time 28.0 hrs"}, "RAW264.7 [9]": {"tested_on": "RAW264.7", "assay": "Antiinflammatory activity in LPS-induced mouse RAW264.7 cells assessed as reduction in IL-1beta mRNA level at 10 to 20 uM preincubated with compound for 4 hrs followed by LPS stimulation and measured after 24 hrs by RT-qPCR analysis", "type": "functional, cell-based", "conditions": "dose 10-20 µM, time 28.0 hrs"}, "MRC5 [10]": {"tested_on": "MRC5", "assay": "Anti-fibrotic activity in TGF-beta1-activated human MRC5 cells assessed as reduction in FN1 mRNA level at 5 to 20 uM incubated for 48 hrs by RT-qPCR analysis", "type": "functional, cell-based", "conditions": "dose 5-20 µM"}, "MRC5 [11]": {"tested_on": "MRC5", "assay": "Anti-fibrotic activity in TGF-beta1-activated human MRC5 cells assessed as reduction in COL-1 mRNA level at 5 to 20 uM incubated for 48 hrs by RT-qPCR analysis", "type": "functional, cell-based", "conditions": "dose 5-20 µM"}, "MRC5 [12]": {"tested_on": "MRC5", "assay": "Anti-fibrotic activity in TGF-beta1-activated human MRC5 cells assessed as reduction in alpha-SMA mRNA level at 5 to 20 uM incubated for 48 hrs by RT-qPCR analysis", "type": "functional, cell-based", "conditions": "dose 5-20 µM"}, "MRC5 [13]": {"tested_on": "MRC5", "assay": "Anti-fibrotic activity in TGF-beta1-activated human MRC5 cells assessed as reduction in FN1 protein expression incubated for 48 hrs by Western blot analysis", "type": "functional, cell-based", "conditions": "dose 5-20 µM"}, "MRC5 [14]": {"tested_on": "MRC5", "assay": "Anti-fibrotic activity in TGF-beta1-activated human MRC5 cells assessed as reduction in COL1 protein expression incubated for 48 hrs by Western blot analysis", "type": "functional, cell-based", "conditions": "dose 5-20 µM"}, "MRC5 [15]": {"tested_on": "MRC5", "assay": "Anti-fibrotic activity in TGF-beta1-activated human MRC5 cells assessed as reduction in alpha-SMA protein expression incubated for 48 hrs by Western blot analysis", "type": "functional, cell-based", "conditions": "dose 5-20 µM"}, "MRC5 [16]": {"tested_on": "MRC5", "assay": "Anti-fibrotic activity in TGF-beta1-activated human MRC5 cells assessed as reduction in COL1 protein expression at 20 uM incubated for 48 hrs by DAPI staining based immunofluorescence microscopic analysis", "type": "functional, cell-based"}, "MRC5 [17]": {"tested_on": "MRC5", "assay": "Anti-fibrotic activity in TGF-beta1-activated human MRC5 cells assessed as reduction in alpha-SMA protein expression at 20 uM incubated for 48 hrs by DAPI staining based immunofluorescence microscopic analysis", "type": "functional, cell-based"}}, "note": "The source made the active and inactive calls. The rule behind the calls is not given here.", "data": [{"compound": "Cc1ccc(=O)n(-c2ccccc2)c1", "values": [{"measurement": "Activity", "setting": "MRC5 [1]", "result": "Active"}, {"measurement": "Activity", "setting": "MRC5 [2]", "result": "Active"}, {"measurement": "Activity", "setting": "MRC5 [3]", "result": "Active"}]}, {"compound": "COc1cc(-c2ccccc2)c(OC)c(O)c1-c1ccc(OCC=C(C)C)c(O)c1", "values": [{"measurement": "IC50", "setting": "Phosphodiesterase 4", "result": 3.5, "unit": "µM"}]}, {"compound": "COc1ccc(-c2c(OC)cc(-c3ccc(O)c(CC=C(C)C)c3)c(OC)c2O)cc1OC", "values": [{"measurement": "IC50", "setting": "Phosphodiesterase 4", "result": 1.8, "unit": "µM"}]}, {"compound": "COc1c(O)c(-c2ccccc2)c(O)c(OC)c1-c1ccc(O)cc1", "values": [{"measurement": "IC50", "setting": "Phosphodiesterase 4", "result": 0.62, "unit": "µM"}]}, {"compound": "COc1cc(-c2ccc(O)c(CC=C(C)C)c2)c(OC)c(O)c1-c1ccc(OCC=C(C)C)c(O)c1", "values": [{"measurement": "IC50", "setting": "Phosphodiesterase 4", "result": 3, "unit": "µM"}]}, {"compound": "COc1c(O)c(-c2ccccc2)c(OC(C)=O)c(OC)c1-c1ccccc1", "values": [{"measurement": "IC50", "setting": "Phosphodiesterase 4", "result": 1.2, "unit": "µM"}, {"measurement": "Activity", "setting": "NIH3T3 [4]", "result": "Non-Toxic"}, {"measurement": "Activity", "setting": "NIH3T3 [5]", "result": "Active"}, {"measurement": "Activity", "setting": "RAW264.7 [6]", "result": "Non-Toxic"}, {"measurement": "Activity", "setting": "RAW264.7 [7]", "result": "Active"}, {"measurement": "Activity", "setting": "RAW264.7 [8]", "result": "Active"}, {"measurement": "Activity", "setting": "RAW264.7 [9]", "result": "Active"}, {"measurement": "Activity", "setting": "MRC5 [10]", "result": "Active"}, {"measurement": "Activity", "setting": "MRC5 [11]", "result": "Active"}, {"measurement": "Activity", "setting": "MRC5 [12]", "result": "Active"}, {"measurement": "Activity", "setting": "MRC5 [13]", "result": "Dose-Dependent Effect"}, {"measurement": "Activity", "setting": "MRC5 [14]", "result": "Dose-Dependent Effect"}, {"measurement": "Activity", "setting": "MRC5 [15]", "result": "Dose-Dependent Effect"}, {"measurement": "Activity", "setting": "MRC5 [16]", "result": "Active"}, {"measurement": "Activity", "setting": "MRC5 [17]", "result": "Active"}]}, {"compound": "COc1cc(-c2ccc(O)cc2)c(OC)c(O)c1-c1ccc(O)c(CC=C(C)C)c1", "note": "[PRENYLTERPHENYLLIN]", "values": [{"measurement": "IC50", "setting": "Phosphodiesterase 4", "result": 4.2, "unit": "µM"}]}, {"compound": "COc1c(O)c(-c2ccccc2)c(O)c(OC)c1-c1ccccc1", "values": [{"measurement": "IC50", "setting": "Phosphodiesterase 4", "result": 0.4, "unit": "µM"}]}, {"compound": "COc1c(-c2ccc(O)cc2)cc(O)c(-c2ccccc2)c1O", "values": [{"measurement": "IC50", "setting": "Phosphodiesterase 4", "result": 16, "unit": "µM"}]}]}
